Measurements published in PMC11061835, “Elucidating the Mechanism of Metabolism of Cannabichromene by Human Cytochrome P450s” (Journal of Natural Products, 2024).

Experiments:
[1] = In vivo metabolism of CBC, mouse blood plasma (LC-MS/MS); design: species or system mice; details: mice, CBC 20 mg/kg IV or IP, plasma at 0.5 and 2 h
Experimental: CBC was dissolved in ethanol, and an aliquot was then mixed with Tween-80. Ethanol was removed by evaporation. The mixture was then reconstituted with PBS to a 6% final concentration of Tween-80. C 57BL/6J female mice, age 8–10 weeks, were injected with 20 mg/kg CBC or vehicle intravenously (IV, n = 3) via the tail vein or intraperitoneally (IP, n = 3). Blood samples were collected terminally by cardiac puncture into heparin-coated syringes at 0.5 and 2 h after CBC treatment and transferred into tubes. The tubes were then centrifuged, and plasma samples were removed and stored at −80 °C.
200 μL of blood plasma from each sample was taken into a glass tube, and 500 μL of extraction solvent (hexane:ethyl acetate 80:20 v/v) was added. The remaining extraction steps are similar to those used for CBC metabolite extraction from CYPs as mentioned earlier.
Samples were analyzed with the 5500 QTRAP LC/MS/MS system (Sciex, Framingham, MA) in the Metabolomics Lab of Roy J. Carver Biotechnology Center, University of Illinois at Urbana–Champaign. Software Analyst 1.7.1 was used for data acquisition and analysis. The 1200 series HPLC system (Agilent Technologies, Santa Clara, CA) includes a degasser, an autosampler, and a binary pump. The LC separation was performed on a Phenomenex Gemini C6-phenyl column (2 × 100 mm, 3 μm) with mobile phase A (0.1% formic acid in water) and mobile phase B (0.1% formic acid in acetonitrile). The flow rate was 0.2 mL/min. The linear gradient was as follows: 0–2 min, 95% A; 10 min, 50% A; 20–25 min, 0% A; 25.1–31 min, 95% A. The autosampler was set at 10 °C. The injection volume was 5 μL. Mass spectra were acquired under positive electrospray ionization (ESI) with the ion spray voltage of +5000 V. The source temperature was 400 °C. The curtain gas, ion source gas 1, and ion source gas 2 were 325, 65, and 55 psi, respectively. Multiple reaction monitoring (MRM) was used for quantitation: CBC m/z 315.1 → m/z 135.0; 1-acetoxy-6′,7′-dihydroxy-CBC (JM-I-73) m/z 349.1→ m/z 193.0; 1″-hydroxy-CBC (JM-I-66) m/z 331.1→ m/z 275.1; 6′,7′-epoxy-CBC (JM-I-27) m/z 331.1→ m/z 193.0; 7′,10′-ene-6′-hydroxy-CBC (JM-I-30) m/z 331.1→ m/z 193.0; 8′-hydroxy-CBC (JM-I-32) […]→ m/z 77.0. Internal standard EET-EA-d11 was monitored at m/z 375.2→ m/z 357.1.

[2] = system: BV2 microglial cells, stimulated with lipopolysaccharide (LPS); test: Arginase 1 ELISA in LPS-stimulated BV2 cells; type: cell-based, mouse; details: 0.1, 1.0, 2.5, 5.0 μM
Experimental: (§1) BV2 cells were a gift from Dr. Bob McCusker, University of Illinois. They were cultured and maintained at 37 °C in a humidified atmosphere of 95% air and 5% CO2 in high-glucose Dulbecco’s modified Eagle’s (DMEM) medium (Cat No. 10-013-CV, Corning Life Sciences), supplemented with 5% heat-inactivated fetal bovine serum (FBS), streptomycin (100 μg/mL), and penicillin (100 units/mL). Stocks of all the minor cannabinoids were made in ethanol and stored at −80 °C and diluted as required before cell treatment. A final concentration of ethanol was maintained at 0.1% in the cell culture experiments.
BV-2 cells were plated at a density of 50 000 cells/well in a 24-well plate at 37 °C under controlled conditions. Cells were pretreated with the minor cannabinoids at various concentrations (0.1, 1.0, 2.5, 5.0 μM) for 4 h and then stimulated with LPS for 24 h. The culture medium was removed and saved for the determination of nitric oxide production through Cayman’s Griess assay. IL-6, TNFα, and Arginase 1 production was also determined utilizing collected medium. […] The absorbance was measured at 540 nm using a plate reader (SpectraMax iD5). The quantification was done using a calibration curve that was generated using the sodium nitrite standard obtained from Cayman Chemicals. […]

CYP3A4 = CYP3A4 (Homo sapiens, UniProt P08684); test: CBC metabolism by CYP3A4; type: in vitro ADME; design: His-tag; made in house; host or cells: E. coli DH-5α with pTGro7 plasmid (CYP)
Experimental: (§2) To study the kinetics of CBC metabolism, concentration dependent metabolism of CBC was carried out in the presence of various CYPs using the following procedure. CYP2J2, CYP2C8, CYP2D6, CYP2C9, and CYP3A4 (final concentration 0.5 μM) were initially dissolved in lipid containing POPC:POPS (8:2 v/v) followed by addition of CPR (final concentration 0.6 μM) in 0.1 M potassium phosphate buffer (pH 7.4). CBC (5–80 μM) was added and incubated at 37 °C for 10 min. The reaction was triggered by NADPH and extracted using the exact sample protocol as mentioned in the HLM section.
(§3) Samples were analyzed with the 5500 QTRAP LC/MS/MS system (Sciex, Framingham, MA) in the Metabolomics Lab of Roy J. Carver Biotechnology Center, University of Illinois at Urbana–Champaign. Software Analyst 1.7.1 was used for data acquisition and analysis. The 1200 series HPLC system (Agilent Technologies, Santa Clara, CA) includes a degasser, an autosampler, and a binary pump. […] Multiple reaction monitoring (MRM) was used for quantitation: CBC m/z 315.1 → m/z 135.0; 1-acetoxy-6′,7′-dihydroxy-CBC (JM-I-73) m/z 349.1→ m/z 193.0; 1″-hydroxy-CBC (JM-I-66) m/z 331.1→ m/z 275.1; 6′,7′-epoxy-CBC (JM-I-27) m/z 331.1→ m/z 193.0; 7′,10′-ene-6′-hydroxy-CBC (JM-I-30) m/z 331.1→ m/z 193.0; 8′-hydroxy-CBC (JM-I-32) […]→ m/z 77.0. Internal standard EET-EA-d11 was monitored at m/z 375.2→ m/z 357.1.

[3] = system: BV2 microglial cells, stimulated with lipopolysaccharide (LPS); test: Nitric oxide determination (Griess assay) in LPS-stimulated BV2 cells; type: cell-based, mouse; details: for effect on NO release/production: 0.1, 1.0, 2.5, 5.0 μM, vs cells treated with LPS only
Experimental: as §1
First, cell viability of BV2 cells was assessed after treatment with cannabinoids, at various concentrations (0.1, 1.0, 2.5, 5.0 μM), utilizing Cayman’s MTT assay. […] Once viability was determined, we measured the production of pro-inflammatory markers such as nitric oxide (NO), interleukin 6 (IL-6), tumor necrosis factor alpha (TNFα), and arginase 1 (Arg1) after BV2 cells were treated with minor cannabinoids and then stimulated with lipopolysaccharide (LPS) to evoke an inflammatory response.
(§4) BV-2 cells were plated at a density of 50 000 cells/well in a 24-well plate at 37 °C under controlled conditions. Cells were pretreated with the minor cannabinoids at various concentrations (0.1, 1.0, 2.5, 5.0 μM) for 4 h and then stimulated with LPS for 24 h. The culture medium was removed and saved for the determination of nitric oxide production through Cayman’s Griess assay. IL-6, TNFα, and Arginase 1 production was also determined utilizing collected medium. For the Greiss assay, in a 96-well plate, 100 μL of culture medium was used, and 50 μL of both Greiss reagent-1 and Greiss reagent-2 was added and incubated for 10 min. The absorbance was measured at 540 nm using a plate reader (SpectraMax iD5). The quantification was done using a calibration curve that was generated using the sodium nitrite standard obtained from Cayman Chemicals.

[4] = system: BV2 microglial cells, stimulated with lipopolysaccharide (LPS); test: IL-6 ELISA in LPS-stimulated BV2 cells; type: cell-based, mouse; details: for effect on IL-6 levels: 0.1, 1.0, 2.5, 5.0 μM, LPS-stimulated
Experimental: as §1, §4
(§5) BV-2 cells were pretreated with the minor cannabinoids as described previously for 4 h in serum media (reduced to 5% FBS). Cells were stimulated with LPS (25 ng/mL in growth media) and allowed to incubate for 24 h. The culture medium was collected, and the concentrations of IL-6 (Cayman Chemicals), TNFα (ThermoFisher Scientific), and arginase 1 (ThermoFisher Scientific) cytokine expression were determined using specific monoclonal antibodies by ELISA kits as per manufacturer’s instructions.

[5] = system: BV2 microglial cells, stimulated with lipopolysaccharide (LPS); test: TNFα ELISA in LPS-stimulated BV2 cells; type: cell-based, mouse; details: 0.1, 1.0, 2.5, 5.0 μM
Experimental: as §1, §4, §5

TRPV1 = system: TRPV1; design: method as in PMID 30697147; details: read-out: agonism toward TRPV1; cited from earlier work
TRPV2 = system: TRPV2; design: method as in PMID 30697147; details: read-out: agonism toward TRPV2; cited from earlier work
CYP2D6 = CYP2D6 (Homo sapiens, UniProt P10635); test: CBC metabolism by CYP2D6; type: in vitro ADME; design: His-tag; made in house; host or cells: E. coli DH-5α with pTGro7 plasmid (CYP)
Experimental: as §2, §3

[6] = system: recombinant CYPs: CYP2J2, CYP2C8, CYP2C9, CYP2D6, and CYP3A4; test: CBC metabolism by recombinant CYPs (all five); type: in vitro ADME, human; details: lipid-constituted system with CPR, NADPH
Experimental: as §2, §3

Chain of CYP3A4 (P08684 whole entry): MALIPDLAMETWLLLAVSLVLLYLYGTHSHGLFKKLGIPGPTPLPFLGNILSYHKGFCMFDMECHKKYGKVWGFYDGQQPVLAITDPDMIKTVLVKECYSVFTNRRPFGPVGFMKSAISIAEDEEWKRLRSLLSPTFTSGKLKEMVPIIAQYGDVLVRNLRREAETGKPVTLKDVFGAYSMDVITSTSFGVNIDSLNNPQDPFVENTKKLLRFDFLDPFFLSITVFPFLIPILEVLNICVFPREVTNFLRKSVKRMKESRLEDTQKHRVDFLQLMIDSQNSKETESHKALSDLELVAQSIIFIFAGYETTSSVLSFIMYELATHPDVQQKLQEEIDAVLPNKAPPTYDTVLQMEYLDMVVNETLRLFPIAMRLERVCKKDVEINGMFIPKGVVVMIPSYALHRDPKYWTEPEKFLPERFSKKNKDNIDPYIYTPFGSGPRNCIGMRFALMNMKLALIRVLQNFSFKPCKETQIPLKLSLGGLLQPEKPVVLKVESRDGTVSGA
Chain of CYP3A4 (P16435 whole entry partner): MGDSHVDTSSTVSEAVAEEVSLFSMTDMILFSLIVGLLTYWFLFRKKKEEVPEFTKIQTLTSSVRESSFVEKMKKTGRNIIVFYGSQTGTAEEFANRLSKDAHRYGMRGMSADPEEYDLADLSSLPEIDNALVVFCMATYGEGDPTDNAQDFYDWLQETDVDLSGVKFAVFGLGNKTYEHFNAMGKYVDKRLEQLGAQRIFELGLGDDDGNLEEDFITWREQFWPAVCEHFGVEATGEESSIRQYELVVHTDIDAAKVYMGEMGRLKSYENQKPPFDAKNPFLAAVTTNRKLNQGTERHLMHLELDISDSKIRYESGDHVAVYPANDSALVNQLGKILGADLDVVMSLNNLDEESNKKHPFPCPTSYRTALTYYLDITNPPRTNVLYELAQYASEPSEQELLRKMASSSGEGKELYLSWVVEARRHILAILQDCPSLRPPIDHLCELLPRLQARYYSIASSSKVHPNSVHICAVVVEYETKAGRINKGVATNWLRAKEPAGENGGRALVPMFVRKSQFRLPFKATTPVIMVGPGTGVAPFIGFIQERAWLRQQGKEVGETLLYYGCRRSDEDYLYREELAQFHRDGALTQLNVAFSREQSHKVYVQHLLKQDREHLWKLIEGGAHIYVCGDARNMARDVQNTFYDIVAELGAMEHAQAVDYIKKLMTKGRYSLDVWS
Chain of CYP2D6 (P10635 whole entry): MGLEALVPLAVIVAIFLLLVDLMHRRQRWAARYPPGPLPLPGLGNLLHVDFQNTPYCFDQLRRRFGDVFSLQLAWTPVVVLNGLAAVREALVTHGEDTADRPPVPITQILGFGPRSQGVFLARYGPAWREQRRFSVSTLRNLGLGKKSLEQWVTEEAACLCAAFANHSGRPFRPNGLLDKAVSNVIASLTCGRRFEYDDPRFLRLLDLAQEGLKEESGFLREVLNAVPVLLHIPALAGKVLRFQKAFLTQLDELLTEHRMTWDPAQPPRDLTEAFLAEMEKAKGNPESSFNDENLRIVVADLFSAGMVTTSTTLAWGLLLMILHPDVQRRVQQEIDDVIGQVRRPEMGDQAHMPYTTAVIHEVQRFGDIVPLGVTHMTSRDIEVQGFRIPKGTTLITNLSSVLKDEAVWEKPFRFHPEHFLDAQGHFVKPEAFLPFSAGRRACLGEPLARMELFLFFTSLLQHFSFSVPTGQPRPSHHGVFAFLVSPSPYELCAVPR
Chain of CYP2D6 (P16435 whole entry partner): as the sequence (P16435 whole entry partner) above

| Compound | detection as product of CBC metabolism in mouse plasma [1] | effect on Arg-1 production [2] | formation as CBC metabolite (CYP3A4) | effect on NO release/production [3] | effect on IL-6 levels [4] | effect on TNFα production [5] | EC50 (TRPV1) [µM] | EC50 (TRPV2) [µM] | further results |
| --- | --- | --- | --- | --- | --- | --- | --- | --- | --- |
| CCCCCc1cc(O)c2c(c1)OC(C)(CCC1OC1(C)C)C=C2 (centres unmarked) [6′,7′-epoxy-CBC] | detected | increases in a concentration dependent manner | exclusively produces | – | – | – | – | – | – |
| C=C(C)C(O)CCC1(C)C=Cc2c(O)cc(CCCCC)cc2O1 (centres unmarked) [7′,10′-ene-6′-hydroxy-CBC] | – | – | – | concentration-dependent reduction | Concentration dependent reduction | Concentration dependent reduction | – | – | – |
| CCCCCc1cc(O)c(C/C=C(\C)CCC=C(C)C)c(O)c1 [CBG, cannabigerol] | – | – | – | – | – | – | ~33 | ~73 | – |
| CCCCC(O)c1cc(O)c2c(c1)OC(C)(CCC=C(C)C)C=C2 (centres unmarked) [1″-hydroxy-CBC] | not detected | increases in a concentration dependent manner | not detected | – | Concentration dependent reduction | Concentration dependent reduction | – | – | detection as CBC metabolite (CYP2D6): not detected |
| CCCCCc1cc(O)c2c(c1)OC(C)(CCC(O)C(C)(C)O)C=C2 (centres unmarked) [6′,7′-dihydroxy-CBC] | detected | – | – | concentration-dependent reduction | Concentration dependent reduction | Concentration dependent reduction | – | – | reduction of NO level ([3]; 5 μM, LPS-stimulated BV2 cells): ~50%; reduction of IL-6 level ([4]; 5 μM, LPS-stimulated BV2 cells): ~50%; detection as CBC metabolite in the presence of recombinant CYPs [6]: not detected |
| C=C(C)[C@@H]1CCC(C)=C[C@H]1c1c(O)cc(CCCCC)cc1O [CBD, cannabidiol] | – | – | – | – | – | – | ~40 | ~40 | – |
